This passage reports Activity and IC50 results from ChEMBL document CHEMBL5143584, “A dual aurora and lim kinase inhibitor reduces glioblastoma proliferation and invasion” (Bioorg Med Chem Lett, 2022).

A short description of data set [1]: Toxicity in human mature brain organoids differentiated from iPSCs assessed as decrease in organoid volume and surface area incubated for 10 days. The following applies: 240 h, time 10 day. The class given is cell-based.
The subject of data set [2] is GBM. The experiment in a line: Antiproliferative activity against fluorescently labelled human GBM cells are co-cultured with mature brain organoids differentiated from iPSCs assessed as reduction in total number of GBM cells incubated for 10 days by fluorescent confocal microscopy. The class given is functional, cell-based. The following applies: time 10.0 day.
The test system of data set [3] is GBM. Briefly: Anti-invasion activity against fluorescently labelled human GBM cells are co-cultured with mature brain organoids differentiated from iPSCs assessed as reduction in number of invading GBM cells incubated for 10 days by fluorescent confocal microscopy. The class given is functional, cell-based. The following applies: time 10.0 day.
Data set [4] can be described thus: Toxicity in human mature brain organoids differentiated from iPSCs assessed as decrease in organoid volume and surface area at 500 nM incubated for 10 days. It counts as cell-based. The note with it: 240 h, 0.5 µM, time 10 day.
Data set [5] deals with GBM. Briefly: Anti-invasion activity against fluorescently labelled human GBM cells are co-cultured with mature brain organoids differentiated from iPSCs assessed as reduction in number of invading GBM cells at 500 nM incubated for 10 days by fluorescent confocal microscopy. The class given is functional, cell-based. The note with it: time 10.0 day.
Data set [6] in a line: Antiproliferative activity against human GBM22 cells assessed as inhibition of cell proliferation incubated for 48 hrs by live/dead fluorescence imaging-based assay. It counts as functional. The following applies: GBM.
Data set [7] can be described thus: Antiproliferative activity against human GBM22 cells assessed as inhibition of cell proliferation incubated for 24 hrs by live/dead fluorescence imaging-based assay. The class given is functional. The following applies: GBM.
The next data set has as its target LIM domain kinase 1 (Homo sapiens, UniProt P53667). The experiment in a line: Inhibition of LIMK1 (unknown origin).
The subject of data set [8] is GBM. Briefly: Antiproliferative activity against fluorescently labelled human GBM cells are co-cultured with mature brain organoids differentiated from iPSCs assessed as reduction in total number of GBM cells by FACS. The class given is functional, cell-based. In general terms: A flow cytometer gives signals particle by particle.
In data set [9] the test system is GBM. Briefly: Antiproliferative activity against fluorescently labelled human GBM cells are co-cultured with mature brain organoids differentiated from iPSCs assessed as reduction in total number of GBM cells at 500 nM incubated for 10 days by fluorescent confocal microscopy. It counts as functional, cell-based. The note with it: time 10.0 day.
A further data set deals with Aurora kinase B (Homo sapiens, UniProt Q96GD4). The experiment in a line: Inhibition of AURKB (unknown origin).
Sequence of Aurora kinase B (Q96GD4 whole entry): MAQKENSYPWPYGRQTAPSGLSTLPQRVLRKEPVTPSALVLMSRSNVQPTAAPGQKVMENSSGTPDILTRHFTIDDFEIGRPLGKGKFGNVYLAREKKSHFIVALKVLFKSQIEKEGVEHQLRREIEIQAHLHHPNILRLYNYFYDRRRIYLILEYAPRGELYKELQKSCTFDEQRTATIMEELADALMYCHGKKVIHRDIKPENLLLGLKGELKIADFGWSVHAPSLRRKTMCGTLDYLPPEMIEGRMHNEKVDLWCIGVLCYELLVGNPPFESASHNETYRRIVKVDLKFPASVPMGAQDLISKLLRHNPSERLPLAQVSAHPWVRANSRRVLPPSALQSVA
A short description of data set [10]: Antiproliferative activity against human GBM22 cells assessed as inhibition of cell proliferation by CellTiter-Glo ATP content assay. It counts as functional, cell-based. The note with it: GBM.
The next data set addresses T1, Aurora kinase A (Homo sapiens, UniProt O14965).
T1 sequence (O14965 whole entry): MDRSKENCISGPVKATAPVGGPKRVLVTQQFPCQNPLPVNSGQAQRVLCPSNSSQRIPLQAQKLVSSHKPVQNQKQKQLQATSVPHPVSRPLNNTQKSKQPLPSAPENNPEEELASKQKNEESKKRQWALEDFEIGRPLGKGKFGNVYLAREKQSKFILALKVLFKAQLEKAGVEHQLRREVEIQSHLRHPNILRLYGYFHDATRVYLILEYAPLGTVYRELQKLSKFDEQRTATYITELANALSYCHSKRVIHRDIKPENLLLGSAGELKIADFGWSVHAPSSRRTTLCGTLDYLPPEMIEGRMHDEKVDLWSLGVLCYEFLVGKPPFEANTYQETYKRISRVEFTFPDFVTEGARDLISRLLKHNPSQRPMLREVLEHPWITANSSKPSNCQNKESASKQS
Briefly: Inhibition of AURKA (unknown origin).

What is called IC50 is the midpoint of a concentration-inhibition curve.

Active and inactive are the calls of the source. No cut-off for these calls is given here.

Sequence of LIM domain kinase 1 (P53667 whole entry, the tested form may be a part): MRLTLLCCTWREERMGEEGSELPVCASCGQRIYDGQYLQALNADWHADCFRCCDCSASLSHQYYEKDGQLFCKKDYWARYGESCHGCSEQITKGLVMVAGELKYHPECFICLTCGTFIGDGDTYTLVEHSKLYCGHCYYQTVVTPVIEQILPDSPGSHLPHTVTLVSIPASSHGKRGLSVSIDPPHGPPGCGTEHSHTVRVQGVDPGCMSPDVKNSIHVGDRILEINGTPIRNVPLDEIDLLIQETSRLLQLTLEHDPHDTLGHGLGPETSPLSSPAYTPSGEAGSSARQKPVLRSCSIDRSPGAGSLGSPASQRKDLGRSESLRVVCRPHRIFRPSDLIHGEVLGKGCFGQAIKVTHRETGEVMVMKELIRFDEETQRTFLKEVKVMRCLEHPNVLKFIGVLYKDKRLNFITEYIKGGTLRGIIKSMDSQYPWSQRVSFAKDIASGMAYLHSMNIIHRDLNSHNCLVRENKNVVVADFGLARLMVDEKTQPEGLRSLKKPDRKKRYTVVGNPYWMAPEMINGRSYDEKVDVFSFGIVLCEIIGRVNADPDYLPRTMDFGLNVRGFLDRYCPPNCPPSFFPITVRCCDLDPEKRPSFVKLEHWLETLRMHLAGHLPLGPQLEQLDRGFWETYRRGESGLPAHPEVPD

As for `Cc1csc(-c2nnc(Nc3ccc(Oc4ncccc4-c4ccnc(N)n4)cc3)c3ccccc23)c1` [AMG-900], in data set [1], the Activity entry is “Non-Toxic”. Further, the result in the data set on GBM [2] was Active.

As to `CC(C)C(=O)Nc1ncc(-c2cc(C(F)F)nn2-c2c(Cl)cccc2Cl)s1`, the Activity entry in data set [1] is “Non-Toxic”. Also, the result in the data set on GBM [2] and with GBM [3] was Active.

As to `CC(C)n1cc(Nc2ncc3ccc(=O)n(C(C)C)c3n2)cn1`, the Activity result in data set [4] is reported as “Toxic”. Further, the result in the data set with GBM [5], in the data set with GBM [8] and with GBM [9] was Active. Besides, the IC50 in data set [6] amounted to 1530 nM; in data set [7] it was 2460 nM; against LIM domain kinase 1 it was 137 nM; at Aurora kinase B it was 17 nM; in data set [10] it was 5340 nM; against Aurora kinase A, 72 nM.
